Measurements taken from patent publication US20250360132A1, “METHODS OF ADMINISTERING MYOSIN INHIBITORS” (MYOKARDIA, INC., priority 2022, published 2025).

Columns and labels:
CYP2C19 [1] = experiment: Pharmacogenomics: CYP2C19 PMs vs NMs, single dose; assay type: in vivo, human; details: single dose of 15 mg mavacamten
Source text: Mean half-life is prolonged in CYP2C19 PMs compared to NMs (23 days vs. 6 to 9 days, respectively).
Polymorphic CYP2C19 is the main enzyme involved in the metabolism of MAVACAMTEN. An individual carrying two normal function alleles is a NM (e.g., *1/*1). An individual carrying two no function alleles is a PM (e.g., *2/*2, *2/*3, *3/*3).

[2] = test system: patients with HCM and healthy subjects; experiment: Human experience of overdose / high doses; assay type: in vivo
bacterial = assay type: cell-based
Source text: (§1) Mavacamten was not genotoxic in a bacterial reverse mutation test (Ames test), a human in vitro lymphocyte […] assay, or a rat in vivo micronucleus assay.

[3] = test system: organic anion transporters (OATs); experiment: In vitro transporter inhibition; assay type: in vitro ADME
CYP2C9 = CYP2C9 (Homo sapiens, UniProt P11712); experiment: In vitro CYP inhibition; assay type: in vitro ADME; details: at clinically relevant concentrations
CYP2C9, sequence (P11712 whole entry): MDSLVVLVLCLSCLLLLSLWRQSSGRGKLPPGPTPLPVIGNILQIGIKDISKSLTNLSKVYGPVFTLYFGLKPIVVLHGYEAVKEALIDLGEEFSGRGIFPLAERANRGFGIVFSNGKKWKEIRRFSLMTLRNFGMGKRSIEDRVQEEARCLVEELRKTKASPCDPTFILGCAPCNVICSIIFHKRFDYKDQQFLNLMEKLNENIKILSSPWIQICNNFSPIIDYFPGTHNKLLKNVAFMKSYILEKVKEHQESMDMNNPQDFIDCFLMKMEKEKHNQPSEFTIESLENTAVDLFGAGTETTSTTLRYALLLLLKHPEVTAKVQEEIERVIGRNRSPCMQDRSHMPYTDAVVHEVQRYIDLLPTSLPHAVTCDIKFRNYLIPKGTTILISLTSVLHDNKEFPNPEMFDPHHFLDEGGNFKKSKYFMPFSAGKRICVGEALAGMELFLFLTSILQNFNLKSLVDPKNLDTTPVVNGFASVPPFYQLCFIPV
Source text: (§2) Mavacamten is a CYP2B6 inducer.

CYP1A2 = CYP1A2 (Homo sapiens, UniProt P05177); experiment: In vitro CYP inhibition; assay type: in vitro ADME
CYP1A2, sequence (P05177 whole entry): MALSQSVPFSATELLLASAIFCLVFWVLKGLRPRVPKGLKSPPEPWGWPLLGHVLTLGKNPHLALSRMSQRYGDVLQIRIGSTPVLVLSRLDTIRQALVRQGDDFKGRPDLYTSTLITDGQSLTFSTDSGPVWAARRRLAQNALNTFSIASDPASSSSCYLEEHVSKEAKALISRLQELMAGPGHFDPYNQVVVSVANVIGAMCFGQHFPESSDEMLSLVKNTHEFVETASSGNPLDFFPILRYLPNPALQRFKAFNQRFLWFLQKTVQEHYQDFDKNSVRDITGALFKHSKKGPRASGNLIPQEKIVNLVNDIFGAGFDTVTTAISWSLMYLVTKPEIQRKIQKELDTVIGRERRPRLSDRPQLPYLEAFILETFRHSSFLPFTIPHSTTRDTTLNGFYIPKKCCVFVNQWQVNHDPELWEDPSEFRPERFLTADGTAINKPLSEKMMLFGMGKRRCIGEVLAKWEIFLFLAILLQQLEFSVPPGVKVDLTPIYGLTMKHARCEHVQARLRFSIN
Source text: as §2

CYP2B6 = CYP2B6 (Homo sapiens, UniProt P20813); experiment: In vitro CYP inhibition; assay type: in vitro ADME
CYP2B6, sequence (P20813 whole entry): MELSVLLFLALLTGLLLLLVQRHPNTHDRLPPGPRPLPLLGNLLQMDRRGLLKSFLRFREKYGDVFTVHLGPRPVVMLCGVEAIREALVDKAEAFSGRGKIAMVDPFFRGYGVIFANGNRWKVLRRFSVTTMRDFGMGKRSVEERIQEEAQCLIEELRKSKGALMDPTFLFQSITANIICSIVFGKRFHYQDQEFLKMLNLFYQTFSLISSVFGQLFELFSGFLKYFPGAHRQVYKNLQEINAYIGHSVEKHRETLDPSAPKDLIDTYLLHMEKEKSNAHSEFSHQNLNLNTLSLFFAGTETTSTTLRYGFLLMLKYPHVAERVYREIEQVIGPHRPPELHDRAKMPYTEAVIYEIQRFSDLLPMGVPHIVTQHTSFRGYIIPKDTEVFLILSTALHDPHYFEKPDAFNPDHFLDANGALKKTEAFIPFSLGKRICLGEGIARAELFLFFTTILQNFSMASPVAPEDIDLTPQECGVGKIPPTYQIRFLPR
Source text: as §2

CYP2C19 [4] = molecular target: CYP2C19 (Homo sapiens, UniProt P33261); experiment: In vitro CYP inhibition; assay type: in vitro ADME; details: at clinically relevant concentrations
CYP2C19 (Homo sapiens, UniProt P33261), sequence (P33261 whole entry): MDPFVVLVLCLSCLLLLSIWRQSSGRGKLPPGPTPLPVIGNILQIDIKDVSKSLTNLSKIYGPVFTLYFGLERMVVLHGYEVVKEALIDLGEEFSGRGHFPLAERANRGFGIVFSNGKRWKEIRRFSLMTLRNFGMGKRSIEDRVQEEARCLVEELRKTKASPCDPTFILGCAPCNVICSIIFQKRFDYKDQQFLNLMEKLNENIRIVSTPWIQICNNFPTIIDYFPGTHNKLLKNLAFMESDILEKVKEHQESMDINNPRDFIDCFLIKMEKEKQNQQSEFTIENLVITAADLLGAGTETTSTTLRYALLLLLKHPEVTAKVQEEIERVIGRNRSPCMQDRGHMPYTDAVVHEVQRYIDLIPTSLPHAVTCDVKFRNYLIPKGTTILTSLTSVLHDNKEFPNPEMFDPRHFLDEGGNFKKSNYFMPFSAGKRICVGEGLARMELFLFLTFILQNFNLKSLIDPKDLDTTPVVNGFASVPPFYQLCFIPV
Source text: as §2

CYP2D6 = CYP2D6 (Homo sapiens, UniProt P10635); experiment: In vitro CYP inhibition; assay type: in vitro ADME; details: at clinically relevant concentrations
CYP2D6, sequence (P10635 whole entry): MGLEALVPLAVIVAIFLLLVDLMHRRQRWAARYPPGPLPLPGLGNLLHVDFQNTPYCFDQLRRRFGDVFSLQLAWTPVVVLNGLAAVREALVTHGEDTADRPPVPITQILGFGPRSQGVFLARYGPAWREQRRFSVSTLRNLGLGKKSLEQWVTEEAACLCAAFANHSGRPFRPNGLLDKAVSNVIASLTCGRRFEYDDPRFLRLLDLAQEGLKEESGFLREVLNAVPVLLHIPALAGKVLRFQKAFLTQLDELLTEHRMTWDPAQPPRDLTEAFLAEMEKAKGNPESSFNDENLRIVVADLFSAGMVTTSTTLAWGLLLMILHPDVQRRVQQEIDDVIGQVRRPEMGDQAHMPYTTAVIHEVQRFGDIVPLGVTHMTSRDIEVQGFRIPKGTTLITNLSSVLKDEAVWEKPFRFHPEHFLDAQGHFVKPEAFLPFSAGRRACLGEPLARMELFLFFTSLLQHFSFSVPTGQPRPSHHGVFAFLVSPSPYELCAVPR
Source text: as §2

CYP2C8 = CYP2C8 (Homo sapiens, UniProt P10632); experiment: In vitro CYP inhibition; assay type: in vitro ADME
CYP2C8, sequence (P10632 whole entry): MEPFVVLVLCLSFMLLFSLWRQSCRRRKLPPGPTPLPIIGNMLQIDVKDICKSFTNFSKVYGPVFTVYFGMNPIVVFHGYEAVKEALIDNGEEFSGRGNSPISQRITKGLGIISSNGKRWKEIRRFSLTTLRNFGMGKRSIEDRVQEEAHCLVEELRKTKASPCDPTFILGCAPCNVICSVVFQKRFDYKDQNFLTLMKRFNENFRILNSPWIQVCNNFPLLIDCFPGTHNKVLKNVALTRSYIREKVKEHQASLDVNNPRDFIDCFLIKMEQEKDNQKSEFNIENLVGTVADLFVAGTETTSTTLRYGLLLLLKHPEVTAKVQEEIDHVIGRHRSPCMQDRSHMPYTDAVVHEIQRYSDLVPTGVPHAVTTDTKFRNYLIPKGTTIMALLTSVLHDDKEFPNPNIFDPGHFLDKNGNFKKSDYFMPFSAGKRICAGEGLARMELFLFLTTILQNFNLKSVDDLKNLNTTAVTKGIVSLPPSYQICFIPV
Source text: as §2

CYP3A4 [5] = molecular target: T1, CYP3A4 (Homo sapiens, UniProt P08684); experiment: In vitro CYP inhibition; assay type: in vitro ADME; details: at clinically relevant concentrations
T1 sequence (P08684 whole entry): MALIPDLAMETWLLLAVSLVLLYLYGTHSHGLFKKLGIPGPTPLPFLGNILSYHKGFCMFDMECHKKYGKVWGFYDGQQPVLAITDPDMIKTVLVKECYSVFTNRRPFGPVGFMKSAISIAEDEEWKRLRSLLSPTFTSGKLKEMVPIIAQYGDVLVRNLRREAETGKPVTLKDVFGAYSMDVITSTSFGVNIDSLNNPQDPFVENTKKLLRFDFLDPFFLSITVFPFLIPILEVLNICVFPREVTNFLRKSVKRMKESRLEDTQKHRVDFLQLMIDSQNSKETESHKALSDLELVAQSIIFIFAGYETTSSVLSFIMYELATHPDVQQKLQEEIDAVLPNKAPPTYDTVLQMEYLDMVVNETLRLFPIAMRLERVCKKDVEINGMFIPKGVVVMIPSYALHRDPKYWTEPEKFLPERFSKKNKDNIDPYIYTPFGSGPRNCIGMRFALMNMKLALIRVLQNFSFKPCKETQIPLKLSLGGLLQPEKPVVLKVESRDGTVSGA
Source text: as §2

[6] = Clinical pharmacokinetics; assay type: in vivo, human
Method: At the same dose level of MAVACAMTEN, 170% higher exposures of mavacamten are observed in patients with HCM compared to healthy subjects.
The Tmax was increased by 4 hours.
Mavacamten has a variable terminal t1/2 that depends on CYP2C19 metabolic status. […] Drug accumulation occurs with an accumulation ratio of about 2-fold for Cmax and about 7-fold for AUC in CYP2C19 NMs. The accumulation depends on the metabolism status for CYP2C19 with the largest accumulation observed in CYP2C19 PMs. At steady-state, the peak-to-trough plasma concentration ratio with once daily dosing is approximately 1.5.
Following a single 25 mg dose of radiolabeled mavacamten, 7% of the dose was recovered in feces (1% unchanged) and 85% in urine (3% unchanged).
The effects of severe (eGFR: 15 to 30 mL/min/1.73 m^2) renal impairment and kidney failure (eGFR: <15 mL/min/1.73 m^2; including patients on dialysis) are unknown.

[7] = test system: adults with symptomatic NYHA class II and III obstructive HCM; details: Olivotto et al., 2020, The Lancet; cited from earlier work
rasH2 transgenic mouse = experiment: 6-month rasH2 transgenic mouse carcinogenicity study; assay type: in vivo
[8] = Pre/postnatal development study; assay type: in vivo, rat; details: female, rat, in vivo; oral, gestation Day 6 to lactation/post-partum Day 20; highest dosage level tested; read-out: no-observed-adverse-effect level (NOAEL)
Method: (§3) In a pre/postnatal development study, mavacamten was administered orally to pregnant rats (0.3, to 1.5 mg/kg/day) from gestation Day 6 to lactation/post-partum Day 20.

pregnant rats = experiment: Pre/postnatal development study; assay type: in vivo, rat; details: 0.3 to 1.5 mg/kg/day
Method: as §3

rat = experiment: Rat in vivo micronucleus assay
Source text: as §1

CYP3A4 [9] = molecular target: T1, CYP3A4; experiment: Metabolism, contribution of CYP3A4; assay type: in vitro ADME
Source text: Mavacamten is extensively metabolized, primarily through CYP2C19 (74%), CYP3A4 (18%), and CYP2C9 (8%).
Statement of Purpose: Mavacamten is a first-in-class, selective, allosteric, and reversible cardiac myosin inhibitor in development for the treatment of adults with symptomatic obstructive hypertrophic cardiomyopathy. Mavacamten is hepatically metabolized predominantly via CYP2C19 (74%), CYP3A4 (18%) and CYP2C9 (8%). A previously developed fit-for-purpose physiologically based pharmacokinetic (PBPK) model was applied to explore the induction effects of a strong CYP3A4/CYP2C19 inducer-rifampin, as well as a strong CYP3A4 inducer-carbamazepine, on mavacamten exposures.

HCM patients = experiment: Meta-analysis of QTc across clinical studies; assay type: in vivo, human; details: therapeutic exposure range
Source text: The effect of coadministration of MAVACAMTEN with QT-prolonging drugs or in patients with potassium channel variants resulting in a long QT interval have not been characterized.

[10] = test system: organic anion transporting polypeptides (OATPs); experiment: In vitro transporter inhibition; assay type: in vitro ADME
MATE1 = MATE1 (Homo sapiens, UniProt Q96FL8); experiment: In vitro transporter inhibition; assay type: in vitro ADME
MATE1, sequence (Q96FL8 whole entry): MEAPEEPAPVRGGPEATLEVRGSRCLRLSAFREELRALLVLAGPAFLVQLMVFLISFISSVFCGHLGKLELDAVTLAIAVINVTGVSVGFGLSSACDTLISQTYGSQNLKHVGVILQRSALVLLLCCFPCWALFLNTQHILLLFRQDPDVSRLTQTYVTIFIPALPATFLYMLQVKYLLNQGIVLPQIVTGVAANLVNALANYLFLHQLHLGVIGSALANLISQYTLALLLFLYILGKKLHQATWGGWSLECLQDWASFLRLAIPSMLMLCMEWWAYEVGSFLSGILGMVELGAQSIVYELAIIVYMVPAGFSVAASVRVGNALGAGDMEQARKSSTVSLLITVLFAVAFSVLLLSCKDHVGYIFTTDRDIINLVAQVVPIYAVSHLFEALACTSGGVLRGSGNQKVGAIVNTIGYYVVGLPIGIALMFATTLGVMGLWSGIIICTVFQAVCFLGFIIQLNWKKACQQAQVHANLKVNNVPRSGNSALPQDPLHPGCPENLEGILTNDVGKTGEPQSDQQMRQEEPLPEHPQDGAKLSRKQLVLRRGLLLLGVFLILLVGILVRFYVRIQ

MATE2-K = MATE2-K (Homo sapiens, UniProt Q86VL8); experiment: In vitro transporter inhibition; assay type: in vitro ADME
MATE2-K, sequence (Q86VL8 1-566 isoform Q86VL8-3): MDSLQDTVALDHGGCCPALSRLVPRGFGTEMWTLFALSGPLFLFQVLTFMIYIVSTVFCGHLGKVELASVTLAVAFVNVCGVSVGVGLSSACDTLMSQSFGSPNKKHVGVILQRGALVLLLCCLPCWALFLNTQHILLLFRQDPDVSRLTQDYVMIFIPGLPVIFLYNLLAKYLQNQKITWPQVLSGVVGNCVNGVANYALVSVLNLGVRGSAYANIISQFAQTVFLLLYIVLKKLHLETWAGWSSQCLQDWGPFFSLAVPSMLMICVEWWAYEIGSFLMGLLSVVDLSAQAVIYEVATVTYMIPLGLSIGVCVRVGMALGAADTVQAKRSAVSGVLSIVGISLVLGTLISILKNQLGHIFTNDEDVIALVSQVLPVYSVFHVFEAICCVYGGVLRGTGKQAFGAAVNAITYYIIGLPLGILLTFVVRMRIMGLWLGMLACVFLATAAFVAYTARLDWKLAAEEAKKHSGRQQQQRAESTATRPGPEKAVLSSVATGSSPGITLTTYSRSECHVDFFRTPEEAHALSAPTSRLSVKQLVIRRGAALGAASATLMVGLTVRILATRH

male or female rats = experiment: Reproductive toxicity studies (mating and fertility); assay type: in vivo, rat

CC(C)n1c(=O)cc(N[C@@H](C)c2ccccc2)[nH]c1=O [mavacamten, (S)-3-Isopropyl-6-((1-phenylethyl)amino)pyrimidine-2,4(1H,3H)-dione]
Increase in AUCinf in CYP2C19 PMs compared to NMs (CYP2C19 [1]): 241%
Increase in Cmax in CYP2C19 PMs compared to NMs (CYP2C19 [1]): 47%
participants experiencing 20% or greater reductions in LVEF ([2]; healthy subjects, 25 mg dose level, up to 25 days): 3 of 8
Outcome of accidental ingestion ([2]; infant, three 15 mg capsules): infant death
Events after single dose of 144 mg ([2]; one subject with HCM, subject recovered): serious adverse events including vasovagal reaction, hypotension, and asystole
Genotoxicity, Ames test (bacterial): not genotoxic
Inhibition of OATs [3]: does not inhibit
Inhibition of CYP2C9 (CYP2C9): not an inhibitor
Inhibition of CYP1A2 (CYP1A2): does not inhibit
Inhibition of CYP2B6 (CYP2B6): does not inhibit
Inhibition of CYP2C19 (CYP2C19 [4]): not an inhibitor
Inhibition of CYP2D6 (CYP2D6): not an inhibitor
Inhibition of CYP2C8 (CYP2C8): does not inhibit
Inhibition of CYP3A4 (CYP3A4 [5]): not an inhibitor
Pharmacokinetics in specific populations ([6]; age 18-82 years, sex, race, ethnicity, mild to moderate renal impairment): No clinically significant differences
Effect of food on pharmacokinetics ([6]; high fat meal): No clinically significant differences
Dose proportionality of exposure ([6]; multiple once-daily doses of 1 mg to 15 mg): increases generally dose proportionally
Higher exposure in patients with HCM compared to healthy subjects ([6]; same dose level): 170%
Clinical benefit in EXPLORER-HCM [7]: effective in reducing LVOT gradients and improving symptoms, exercise performance and health status
Carcinogenicity (rasH2 transgenic mouse; 6-month, up to 2.0 mg/kg/day in males and 3.0 mg/kg/day in females): no evidence of carcinogenicity
Exposure (AUC) compared to humans at the MRHD (rasH2 transgenic mouse; females, 3.0 mg/kg/day): 3 fold
Exposure (AUC) compared to humans at the MRHD (rasH2 transgenic mouse; males, 2.0 mg/kg/day): 1.8 fold
NOAEL [8]: 1.5 mg/kg/day
Effects in dams or offspring (pregnant rats): No adverse effects were observed in the dams or offspring
Genotoxicity, rat in vivo micronucleus assay (rat): not genotoxic
Metabolism through CYP3A4 (CYP3A4 [9]): 18%
QTc interval in HCM patients (HCM patients): does not suggest clinically relevant increases in the QTc interval
Inhibition of OATPs [10]: does not inhibit
Inhibition of MATE1 (MATE1): does not inhibit
Inhibition of MATE2-K (MATE2-K): does not inhibit
Effects on viability and fertility of offspring (male or female rats; dams dosed up to 1.5 mg/kg/day): no evidence of effects
Plasma exposure (AUC) at the highest dose tested (male or female rats; vs humans at the MRHD): the same as in humans at the MRHD
